This assay relates to Laminin 421/521. The assay is described as follows: Phage display library screening (Example 2), NEB laminin-binding peptides. Set-up: species or system human. Particulars: Laminin 421/521, not 211 and 411; combined unique sequence count, Python/R script analysis. Here is the method: Phage display library screens were used to identify peptides that bind to target proteins (including specific laminin trimers) that are expressed in human nerves, as described in Table 3. These screens were also carried out to identify peptides that could bind selectively to nerves versus muscle. Such peptides could therefore be useful for systemic in-vivo labeling of nerves during fluorescence assisted surgery. Specifically, m 13 phage libraries expressing 7 or 12 random amino acid peptides, or a cyclic peptide CX7C, on the N-terminus of the minor coat protein pIII (New England Biolabs; NEB) were processed through multiple rounds of selection for binding to target proteins expressed in nerves, or to excised human nerves, nerve extracts, or muscle, as described further below.
For screening against the specified target proteins in Table 1, including LN211, LN411, LN421, and LN521, the phage library was processed by up to 4 binding and wash cycles. For selection, phage libraries were incubated for up to 24 hours at 4° C. in 96 well plates that had been coated with one of the target proteins. Plates were then washed with PBS and phage were eluted using 0.2M glycine pH 2.0. Phage supernatants where then neutralized with Tris pH 9.0 prior to plating on TGI bacteria and LB agar plates. Colonies were counted to determine titer followed by DNA preparation of pools of phage and NextGen sequencing. After rounds of selection, phage were pooled and amplified for iterative selection. Phage that were bound at each round were sequenced. NextGen sequencing of pools after 2, 3 and 4 rounds of selection was used to isolate candidate sequences that were analyzed further to identify those that specifically bound each unique target protein.
For all NEB sequence datasets, a python script was used to translate, trim, and filter the peptide sequences (see details above). A python script was used to group peptides from different assays according to laminin complex binding (laminin complex 211, 411, 421, or 521) and combine the unique sequence counts for each peptide. An R script was written to merge the peptide sequences from different data files and determine peptides that specifically bind one laminin complex and not the others, or that bind both laminin 421 and 521 but not 211 and 411.
Consider “CTGRISKHC (Laminin 421/521-binding peptide)”, for which the Count was determined as 43.
The same measure for “HSFLGAR (Laminin 421/521-binding peptide)”: 44; for “GLLDWGSLQGGN (Laminin 421/521-binding peptide)”: 30.
In the case of “ATSKYPNSWAQT (Laminin 421/521-binding peptide)”, the Count is 80.
Consider “WGWNGANMSPRG (Laminin 421/521-binding peptide)”, for which the Count amounted to 31.
The same measure for “WQWRSTELGYRY (Laminin 421/521-binding peptide)”: 36; for “GHRTLVTSERYL (Laminin 421/521-binding peptide)”: 38; for “CQTSGHHQC (Laminin 421/521-binding peptide)”: 31.
Take “CTDGRNFVC (Laminin 421/521-binding peptide)”: the Count is recorded as 28.
The same measure for “CTGETLLTC (Laminin 421/521-binding peptide)”: 28; for “LGPSTQGAGQTR (Laminin 421/521-binding peptide)”: 38.
With “CTAWTRQEC (Laminin 421/521-binding peptide)”, the Count is 31.
For “EVERILTPHVNN (Laminin 421/521-binding peptide)” the value was 29; for “NWTHLGVARLQP (Laminin 421/521-binding peptide)”, 36; for “VVPSWPSVHRPP (Laminin 421/521-binding peptide)”, 31.
On to “TTNGVPGHDRSP (Laminin 421/521-binding peptide)”, for which the Count is recorded as 46.
“KPILWNRSLNAL (Laminin 421/521-binding peptide)”: the Count amounted to 52.
For “AKTQAPSNWSGV (Laminin 421/521-binding peptide)” the value was 43; for “YHLGPNQKMRTS (Laminin 421/521-binding peptide)”, 48.
For “GSPEKRT (Laminin 421/521-binding peptide)” the value was 30.
The same measure for “VPVFLDQARVMK (Laminin 421/521-binding peptide)”: 53; for “LGHQNGGRADMW (Laminin 421/521-binding peptide)”: 35; for “SLAVANTRFMIR (Laminin 421/521-binding peptide)”: 49.
As for “NGHEVQSRAANR (Laminin 421/521-binding peptide)”, the Count was 29.
Take “GIVPSRHTTGLG (Laminin 421/521-binding peptide)”: the Count was 28.
Consider “SVVGWAAPRTAQ (Laminin 421/521-binding peptide)”, for which the Count stood at 27.
Turning to “CHQRQQTYC (Laminin 421/521-binding peptide)”, the Count was determined as 55.
For “GQPRNIHLPGTH (Laminin 421/521-binding peptide)” the value was 40; for “CHNADNNGC (Laminin 421/521-binding peptide)”, 32; for “TILKPAAQGFAD (Laminin 421/521-binding peptide)”, 27.
For “CKSPIKGTC (Laminin 421/521-binding peptide)” the value was 27.
The same measure for “GRTIHSM (Laminin 421/521-binding peptide)”: 95; for “GHPWTEIDFMSS (Laminin 421/521-binding peptide)”: 50.
With “SYTATWSEMSRS (Laminin 421/521-binding peptide)”, the Count is listed as 28.
Consider “IDLSLRS (Laminin 421/521-binding peptide)”, for which the Count is on record as 29.
For “HQSLAGVPWSRH (Laminin 421/521-binding peptide)” the value was 53.
Consider “LPMLRHS (Laminin 421/521-binding peptide)”, for which the Count is 32.
For “HTQIHRL (Laminin 421/521-binding peptide)” the value was 28.
For “TVARSTAQERSI (Laminin 421/521-binding peptide)” the value was 28.
Regarding “GINLRALDLHAN (Laminin 421/521-binding peptide)”, the Count was determined as 27.
For “EAVSTQI (Laminin 421/521-binding peptide)” the value was 27; for “MTHSAHNSQKTN (Laminin 421/521-binding peptide)”, 117; for “CFQPKMNSC (Laminin 421/521-binding peptide)”, 42.
The same measure for “CNSWKAAKC (Laminin 421/521-binding peptide)”: 29; for “CMNKIQRDC (Laminin 421/521-binding peptide)”: 131.
For “VPSYILR (Laminin 421/521-binding peptide)” the value was 30; for “DRLTPITWDWSR (Laminin 421/521-binding peptide)”, 86; for “EYVKFSHSPRTY (Laminin 421/521-binding peptide)”, 31.
For “IPVGERK (Laminin 421/521-binding peptide)”, the Count is reported as 124.
The same measure for “GPLLFRG (Laminin 421/521-binding peptide)”: 30.
As to “GEPLTRFPNSDS (Laminin 421/521-binding peptide)”, the Count was 52.
For “GGWQSLWDKPEH (Laminin 421/521-binding peptide)” the value was 31; for “WNANYGTMTRHA (Laminin 421/521-binding peptide)”, 92.
As for “DGQVSDHSYVQW (Laminin 421/521-binding peptide)”, the Count is 101.
On to “CNHLTQKLC (Laminin 421/521-binding peptide)”, for which the Count is 45.
In the case of “SYDGTMLKQVRL (Laminin 421/521-binding peptide)”, the Count is given as 36.
For “NNNAAMQNHGVR (Laminin 421/521-binding peptide)” the value was 51; for “TAPRWTQ (Laminin 421/521-binding peptide)”, 30; for “RALDRYLPWSPH (Laminin 421/521-binding peptide)”, 28.
For “VIADQSKSAVAV (Laminin 421/521-binding peptide)” the value was 27; for “KFADTKLTSLRY (Laminin 421/521-binding peptide)”, 28; for “CLKDTHLNC (Laminin 421/521-binding peptide)”, 40.
As for “GYDLSRLWGMAS (Laminin 421/521-binding peptide)”, the Count is 39.
The same measure for “ADMPQMTLKYGV (Laminin 421/521-binding peptide)”: 47; for “GDLLLKR (Laminin 421/521-binding peptide)”: 47.
For “CTSSSHQTC (Laminin 421/521-binding peptide)”, the Count was 28.
For “GFADVIHRKWSS (Laminin 421/521-binding peptide)” the value was 53.
With “LGYGQGTPHRSN (Laminin 421/521-binding peptide)”, the Count was 30.
For the substance “KQELSDNLASHR (Laminin 421/521-binding peptide)”, the Count is 50.
For “ANRYLAS (Laminin 421/521-binding peptide)” the value was 40; for “DVIHSSRGAYFE (Laminin 421/521-binding peptide)”, 36; for “QGWFRHS (Laminin 421/521-binding peptide)”, 121.
The same measure for “GDVITAYINPWP (Laminin 421/521-binding peptide)”: 39; for “YTPRNQL (Laminin 421/521-binding peptide)”: 55; for “ETGGLAYGSGQK (Laminin 421/521-binding peptide)”: 28.
The same measure for “GSTTHPHFGLPG (Laminin 421/521-binding peptide)”: 40.
As for “NHDQGSLTRWRS (Laminin 421/521-binding peptide)”, the Count came to 31.
For “QTRWDDGSYQIS (Laminin 421/521-binding peptide)” the value was 49; for “AGAYTSRHAFDE (Laminin 421/521-binding peptide)”, 39.
As to “CSSQAKRSC (Laminin 421/521-binding peptide)”, the Count amounted to 31.
The same measure for “RNLHYPLNHPFM (Laminin 421/521-binding peptide)”: 30; for “CLNQKWEAC (Laminin 421/521-binding peptide)”: 64.
For “GWTSDLSRNVRG (Laminin 421/521-binding peptide)” the value was 28.
